From patent US12384756B2, “Piperidinedione derivatives” (INNOCURE THERAPEUTICS, INC., priority 2021, dated 2025)
Read-outs that look alike come from different tables or passages of the source.

Experiments:
BRD4 = BRD4 (Homo sapiens, UniProt O60885); experiment: BRD4 protein degradation by western blot in MDA-MB-231 cells; type: cell-based; design: BRD4 expressed in cells; endogenous in cells; host or cells: MDA-MB-231; settings: MDA-MB-231, 24 hours; for DC50: 50% inhibition of protein expression, read-out: DC50 of BRD4-targeted PROTAC
Description: (§1) Human breast cancer cell line [MDA-MB-231] was cultured in RPMI medium with 10% petal bovine serum, penicillin [100 U/ml] and streptomycin [[…]]. The synthesized compound was prepared as a stock solution of 10 mM or 50 mM dissolved in DMSO [dimethyl sulfoxide], and it was sequentially diluted to treat the cell line.
To evaluate the PROTAC's degradation ability to BRD4 expressed in cells, the cells were aliquoted into a 6 well plate at a concentration of 5×10^5 cells/ml, and then the sample was treated for 24 hours. In order to conduct western blotting assay to confirm protein expression, the cell treated with the compound was treated for 30 minutes with 70 μL of RIPA buffer wherein protease inhibitor is added. Then, cell lysate was collected on ice using a scraper and centrifuged at 4° C. 15,000 rpm for 30 minutes to obtain a supernatant containing protein. Then, SDS-PAGE is conducted for 10 μg of protein per each sample, and the protein is transferred to a membrane. The protein is reacted with antibodies of anti-BRD4, anti-tubulin and anti-GAPDH at 4° C. for 16 hours, and then, reacted with secondary antibodies at room temperature for 1 hour. The protein expression is confirmed using SUPERSIGNAL™ WEST PICO PLUS chemiluminescence substrate and image analyzer. The protein expression was normalized based on the expression value of β-tublin or GAPDH. The amount of protein expression in each sample was measured in % based on the sample treated with 0.1% DMSO vehicle which was set to 100%. The amount of protein expression was quantified using the IMAGE J PROGRAM. The change in the amount of protein expression due to the treatment of compound (DC50: the concentration of compounds where the 50% inhibition of protein expression is achieved) was calculated using […] PRISM 8.0 software.

[1] = system: Human breast cancer cell line [MDA-MB-231]; experiment: Anti-proliferative activity (WST-8) of BRD4 targeted PROTAC in MDA-MB-231; type: cell-based; settings: Homo sapiens, MDA-MB-231, 72 hours
Description: as §1
In order to observe inhibition of cell growth, cells were aliquoted into concentrations of 5,000 cells/well at 96 well plates, and then were treated with samples prepared at various concentrations for 72 hours. The cell survival was calculated by steps of adding in each well […] of water soluble tetrazolium salt (WST-8) which produces formazon in response to dehydrogenase present in the electron transport chain in mitochondria, incubating for 2 hours, measuring the absorbance at 450 nm, and calculating by GraphicPad Prism 8.0 software.

[2] = WST-8, read-out: IC50 of BRD4-targeted PROTAC (cell proliferation)
[3] = read-out: concentration at which cancer cell proliferation is effectively inhibited

## Cc1sc2c(c1C)C(c1ccc(Cl)cc1)=N[C@@H](CC(=O)Nc1ccc(OCCOCCOCCOCCNc3ccc4cnn(C5CCC(=O)NC5=O)c(=O)c4c3)cc1)c1nnc(C)n1-2 (stereo partly drawn) [Ex. 29, 2-((S)-4-(4-chlorophenyl)-2,3,9-trimethyl-6H-thieno[3,2-f][1,2,4]triazolo[4,3-a][1,4]diazepin-6-yl)-N-(4-(2-(2-(2-(2-((3-(2,6-dioxopiperidin-3-yl)-4-oxo-3,4-dihydrophthalazin-6-yl)amino)ethoxy)ethoxy)ethoxy)ethoxy)phenyl)acetamide]
BRD4
  BRD4 degradation (in words): effectively degraded
  DC50: 0.0037 µM
[1]; [2]
  IC50: 0.0986 µM
[1]; [3]
  IC50: < 0.25 µM

## Cc1sc2c(c1C)C(c1ccc(Cl)cc1)=N[C@@H](CC(=O)Nc1cccc(OCCOCCOCCNc3cccc4c(=O)n(C5CCC(=O)NC5=O)ncc34)c1)c1nnc(C)n1-2 (stereo partly drawn) [Ex. 30, 2-[(9S)-7-(4-chlorophenyl)-4,5,13-trimethyl-3-thia-1,8,11,12-tetraazatricyclo[8.3.0.0^2,6]trideca-2(6),4,7,10,12-pentaen-9-yl]-N-(3-{2-[2-(2-{[2-(2,6-dioxopiperidin-3-yl)-1-oxo-1,2-dihydrophthalazin-5-yl]amino}ethoxy)ethoxy]ethoxy}phenyl)acetamide]
[1]; [2]
  IC50: > 1 µM

## Cc1sc2c(c1C)C(c1ccc(Cl)cc1)=N[C@@H](CC(=O)NCc1cn(CCOCCOCCNc3cccc4cnn(C5CCC(=O)NC5=O)c(=O)c34)nn1)c1nnc(C)n1-2 (stereo partly drawn) [Ex. 31, 2-((S)-4-(4-chlorophenyl)-2,3,9-trimethyl-6H-thieno[3,2-f][1,2,4]triazolo[4,3-a][1,4]diazepin-6-yl)-N-((1-(2-(2-(2-((3-(2,6-dioxopiperidin-3-yl)-4-oxo-3,4-dihydrophthalazin-5-yl)amino)ethoxy)ethoxy)ethyl)-1H-1,2,3-triazol-4-yl)methyl)acetamide]
[1]; [2]
  IC50: > 1 µM

## Cc1sc2c(c1C)C(c1ccc(Cl)cc1)=N[C@@H](CC(=O)NCc1cn(CCOCCOCCOCCNc3cccc4cnn(C5CCC(=O)NC5=O)c(=O)c34)nn1)c1nnc(C)n1-2 (stereo partly drawn) [Ex. 32, 2-((S)-4-(4-chlorophenyl)-2,3,9-trimethyl-6H-thieno[3,2-f][1,2,4]triazolo[4,3-a][1,4]diazepin-6-yl)-N-((1-(2-(2-(2-(2-((3-(2,6-dioxopiperidin-3-yl)-4-oxo-3,4-dihydrophthalazin-5-yl)amino)ethoxy)ethoxy)ethoxy)ethyl)-1H-1,2,3-triazol-4-yl)methyl)acetamide]
[1]; [2]
  IC50: > 1 µM

## Cc1sc2c(c1C)C(c1ccc(Cl)cc1)=N[C@@H](CC(=O)NCc1cn(CCOCCOCCNc3cccc4c(=O)n(C5CCC(=O)NC5=O)ncc34)nn1)c1nnc(C)n1-2 (stereo partly drawn) [Ex. 33, 2-[(9S)-7-(4-chlorophenyl)-4,5,13-trimethyl-3-thia-1,8,11,12-tetraazatricyclo[8.3.0.0^2,6]trideca-2(6),4,7,10,12-pentaen-9-yl]-N-[(1-{2-[2-(2-{[2-(2,6-dioxopiperidin-3-yl)-1-oxo-1,2-dihydrophthalazin-5-yl]amino}ethoxy)ethoxy]ethyl}-1H-1,2,3-triazol-4-yl)methyl]acetamide]
BRD4
  DC50: 0.171 µM
[1]; [2]
  IC50: > 1 µM

## Cc1sc2c(c1C)C(c1ccc(Cl)cc1)=N[C@@H](CC(=O)NCc1cn(CCOCCOCCOCCNc3cccc4c(=O)n(C5CCC(=O)NC5=O)ncc34)nn1)c1nnc(C)n1-2 (stereo partly drawn) [Example 34, 2-[(9S)-7-(4-chlorophenyl)-4,5,13-trimethyl-3-thia-1,8,11,12-tetraazatricyclo[8.3.0.0^2,6]trideca-2(6),4,7,10,12-pentaen-9-yl]-N-{[1-(2-{2-[2-(2-{[2-(2,6-dioxopiperidin-3-yl)-1-oxo-1,2-dihydrophthalazin-5-yl]amino}ethoxy)ethoxy]ethoxy}ethyl)-1H-1,2,3-triazol-4-yl]methyl}acetamide]
BRD4
  DC50: 0.0386 µM
[1]; [2]
  IC50: > 1 µM

## Cc1sc2c(c1C)C(c1ccc(Cl)cc1)=N[C@@H](CC(=O)NCCOCCOCCOCCn1cc(CNc3cccc4cnn(C5CCC(=O)NC5=O)c(=O)c34)nn1)c1nnc(C)n1-2 (stereo partly drawn) [Example 36, 2-[(9S)-7-(4-chlorophenyl)-4,5,13-trimethyl-3-thia-1,8,11,12-tetraazatricyclo[8.3.0.0^2,6]trideca-2(6),4,7,10,12-pentaen-9-yl]-N-{2-[2-(2-{2-[4-({[3-(2,6-dioxopiperidin-3-yl)-4-oxo-3,4-dihydrophthalazin-5-yl]amino}methyl)-1H-1,2,3-triazol-1-yl]ethoxy}ethoxy)ethoxy]ethyl}acetamide]
BRD4
  DC50: 0.663 µM
[1]; [2]
  IC50: > 1 µM

## Cc1sc2c(c1C)C(c1ccc(Cl)cc1)=N[C@@H](CC(=O)NCCCCCNc1ccc3c(=O)n(C4CCC(=O)NC4=O)ncc3c1)c1nnc(C)n1-2 (stereo partly drawn) [Example 37, 2-((S)-4-(4-chlorophenyl)-2,3,9-trimethyl-6H-thieno[3,2-f][1,2,4]triazolo[4,3-a][1,4]diazepin-6-yl)-N-(5-((2-(2,6-dioxopiperidin-3-yl)-1-oxo-1,2-dihydrophthalazin-6-yl)amino)pentyl)acetamide]
BRD4
  BRD4 degradation (in words): effectively degraded
  DC50: 0.000173 µM
[1]; [2]
  IC50: < 0.001 µM
[1]; [3]
  IC50: < 0.25 µM

## Cc1sc2c(c1C)C(c1ccc(Cl)cc1)=N[C@@H](CC(=O)NCCCN1CCN(CCCNc3cccc4cnn(C5CCC(=O)NC5=O)c(=O)c34)CC1)c1nnc(C)n1-2 (stereo partly drawn) [Example 38, 2-((S)-4-(4-chlorophenyl)-2,3,9-trimethyl-6H-thieno[3,2-f][1,2,4]triazolo[4,3-a][1,4]diazepin-6-yl)-N-(3-(4-(3-((3-(2,6-dioxopiperidin-3-yl)-4-oxo-3,4-dihydrophthalazin-5-yl)amino)propyl)piperazin-1-yl)propyl)acetamide]
BRD4
  DC50: 0.0665 µM
[1]; [2]
  IC50: 0.568 µM

## Cc1sc2c(c1C)C(c1ccc(Cl)cc1)=N[C@@H](CC(=O)NCCOc1cccc3c(=O)n(C4CCC(=O)NC4=O)ncc13)c1nnc(C)n1-2 (stereo partly drawn) [Example 46, 2-((S)-4-(4-chlorophenyl)-2,3,9-trimethyl-6H-thieno[3,2-f][1,2,4]triazolo[4,3-a][1,4]diazepin-6-yl)-N-(2-((2-(2,6-dioxopiperidin-3-yl)-1-oxo-1,2-dihydrophthalazin-5-yl)oxy)ethyl)acetamide]
[1]; [2]
  IC50: > 1 µM

## Cc1sc2c(c1C)C(c1ccc(Cl)cc1)=N[C@@H](CC(=O)NCC1CCN(c3cccc4cnn(C5CCC(=O)NC5=O)c(=O)c34)C1)c1nnc(C)n1-2 (stereo partly drawn) [Example 50, 2-((S)-4-(4-chlorophenyl)-2,3,9-trimethyl-6H-thieno[3,2-f][1,2,4]triazolo[4,3-a][1,4]diazepin-6-yl)-N-((1-(3-(2,6-dioxopiperidin-3-yl)-4-oxo-3,4-dihydrophthalazin-5-yl)pyrrolidin-3-yl)methyl)acetamide]
[1]; [2]
  IC50: 0.622 µM

## Cc1sc2c(c1C)C(c1ccc(Cl)cc1)=N[C@@H](CC(=O)NCCCCCNc1cccc3c(=O)n(C4CCC(=O)NC4=O)ncc13)c1nnc(C)n1-2 (stereo partly drawn) [Example 51, 2-[(9S)-7-(4-chlorophenyl)-4,5,13-trimethyl-3-thia-1,8,11,12-tetraazatricyclo[8.3.0.0^2,6]trideca-2(6),4,7,10,12-pentaen-9-yl]-N-(5-{[2-(2,6-dioxopiperidin-3-yl)-1-oxo-1,2-dihydrophthalazin-5-yl]amino}pentyl)acetamide]
[1]; [2]
  IC50: 0.101 µM

## Cc1sc2c(c1C)C(c1ccc(Cl)cc1)=N[C@@H](CC(=O)NCCCCCNc1cccc3cnn(C4CCC(=O)NC4=O)c(=O)c13)c1nnc(C)n1-2 (stereo partly drawn) [Example 52, 2-[(9S)-7-(4-chlorophenyl)-4,5,13-trimethyl-3-thia-1,8,11,12-tetraazatricyclo[8.3.0.0^2,6]trideca-2(6),4,7,10,12-pentaen-9-yl]-N-(5-{[3-(2,6-dioxopiperidin-3-yl)-4-oxo-3,4-dihydrophthalazin-5-yl]amino}pentyl)acetamide]
[1]; [2]
  IC50: 0.127 µM

## Cc1sc2c(c1C)C(c1ccc(Cl)cc1)=N[C@@H](CC(=O)NCC1CCN(c3cccc4cnn(C5CCC(=O)NC5=O)c(=O)c34)CC1)c1nnc(C)n1-2 (stereo partly drawn) [Example 53, 2-((S)-4-(4-chlorophenyl)-2,3,9-trimethyl-6H-thieno[3,2-f][1,2,4]triazolo[4,3-a][1,4]diazepin-6-yl)-N-((1-(3-(2,6-dioxopiperidin-3-yl)-4-oxo-3,4-dihydrophthalazin-5-yl)piperidine-4-yl)methyl)acetamide]
[1]; [2]
  IC50: > 1 µM
